Experiment: xn = mol fraction of the nth substance listed
Settings: for speed of sound: 100 kPa, Frequency=3 MHz, Sing-around technique in a fixed-path interferometer; for speed of sound / viscosity / mass density: Liquid; for viscosity / mass density: 102 kPa; for viscosity: Concentric cylinders viscometry; for mass density: Vibrating tube method; for surface tension liquid-gas: 294.5 K, Pendant drop shape

CCCCc1ccccc1 [butylbenzene] + CCCCCCCCCCCCCC
Settings	mass density [kg/m3]	speed of sound [m/s]	viscosity [mPa·s]
293.15 K, x1 = 0.1414	770.92	1330.1	2.06
293.15 K, x1 = 0.2704	779.61	1329.5	1.86
293.15 K, x1 = 0.3915	788.74	1329.7	1.69
293.15 K, x1 = 0.4988	797.91	1330.9	1.55
293.15 K, x1 = 0.5961	807.14	1332.5	1.44
293.15 K, x1 = 0.6892	817.1	1334.9	1.34
293.15 K, x1 = 0.7751	827.32	1338.1	1.25
293.15 K, x1 = 0.8553	837.74	1342.1	1.18
293.15 K, x1 = 0.9299	849.02	1347.7	1.12
293.15 K, x1 = 1	860.51	1353.7	1.05
303.15 K, x1 = 0.1414	763.79	1292.6	1.7
303.15 K, x1 = 0.2704	772.41	1292.1	1.54
303.15 K, x1 = 0.3915	781.46	1292.3	1.42
303.15 K, x1 = 0.4988	790.54	1293.4	1.31
303.15 K, x1 = 0.5961	799.68	1294.9	1.22
303.15 K, x1 = 0.6892	809.54	1297.2	1.14
303.15 K, x1 = 0.7751	819.66	1300.2	1.07
303.15 K, x1 = 0.8553	829.96	1303.8	1.02
303.15 K, x1 = 0.9299	841.12	1309.2	0.965
303.15 K, x1 = 1	852.49	1314.9	0.91
313.15 K, x1 = 0.1414	756.65	1255.6	1.42
313.15 K, x1 = 0.2704	765.18	1255.1	1.31
313.15 K, x1 = 0.3915	774.14	1255.3	1.21
313.15 K, x1 = 0.4988	783.14	1256.3	1.12
313.15 K, x1 = 0.5961	792.18	1257.6	1.05
313.15 K, x1 = 0.6892	801.94	1259.8	0.987
313.15 K, x1 = 0.7751	811.95	1262.7	0.932
313.15 K, x1 = 0.8553	822.15	1266.1	0.886
313.15 K, x1 = 0.9299	833.19	1271.2	0.843
313.15 K, x1 = 1	844.43	1276.6	0.801
323.15 K, x1 = 0.1414	749.49	1219.1	1.21
323.15 K, x1 = 0.2704	757.94	1218.6	1.12
323.15 K, x1 = 0.3915	766.81	1218.7	1.04
323.15 K, x1 = 0.4988	775.71	1219.6	0.973
323.15 K, x1 = 0.5961	784.66	1220.9	0.915
323.15 K, x1 = 0.6892	794.32	1223	0.863
323.15 K, x1 = 0.7751	804.22	1225.6	0.818
323.15 K, x1 = 0.8553	814.31	1228.9	0.78
323.15 K, x1 = 0.9299	825.22	1233.7	0.744
323.15 K, x1 = 1	836.34	1238.7	0.713
333.15 K, x1 = 0.1414	742.31	1183.2	1.05
333.15 K, x1 = 0.2704	750.67	1182.7	0.973
333.15 K, x1 = 0.3915	759.45	1182.7	0.908
333.15 K, x1 = 0.4988	768.25	1183.5	0.853
333.15 K, x1 = 0.5961	777.11	1184.7	0.806
333.15 K, x1 = 0.6892	786.65	1186.6	0.762
333.15 K, x1 = 0.7751	796.45	1189.1	0.725
333.15 K, x1 = 0.8553	806.42	1192.1	0.691
333.15 K, x1 = 0.9299	817.22	1196.7	0.662
333.15 K, x1 = 1	828.21	1201.4	0.636
343.15 K, x1 = 0.1414	735.2	–	0.912
343.15 K, x1 = 0.2704	743.4	–	0.852
343.15 K, x1 = 0.3915	752	–	0.8
343.15 K, x1 = 0.4988	760.8	–	0.753
343.15 K, x1 = 0.5961	769.6	–	0.716
343.15 K, x1 = 0.6892	779	–	0.678
343.15 K, x1 = 0.7751	788.7	–	0.647
343.15 K, x1 = 0.8553	798.5	–	0.619
343.15 K, x1 = 0.9299	809.2	–	0.592
343.15 K, x1 = 1	819.9	–	0.571
353.15 K, x1 = 0.1414	728	–	0.804
353.15 K, x1 = 0.2704	736.1	–	0.754
353.15 K, x1 = 0.3915	744.6	–	0.711
353.15 K, x1 = 0.4988	753.3	–	0.671
353.15 K, x1 = 0.5961	762	–	0.639
353.15 K, x1 = 0.6892	771.3	–	0.608
353.15 K, x1 = 0.7751	780.9	–	0.581
353.15 K, x1 = 0.8553	790.6	–	0.557
353.15 K, x1 = 0.9299	801.1	–	0.534
353.15 K, x1 = 1	811.7	–	0.516
363.15 K, x1 = 0.1414	720.7	–	0.715
363.15 K, x1 = 0.2704	728.7	–	0.674
363.15 K, x1 = 0.3915	737.1	–	0.637
363.15 K, x1 = 0.4988	745.7	–	0.604
363.15 K, x1 = 0.5961	754.3	–	0.576
363.15 K, x1 = 0.6892	763.5	–	0.55
363.15 K, x1 = 0.7751	773	–	0.526
363.15 K, x1 = 0.8553	782.5	–	0.505
363.15 K, x1 = 0.9299	793	–	0.486
363.15 K, x1 = 1	803.4	–	0.469
373.15 K, x1 = 0.1414	713.3	–	0.641
373.15 K, x1 = 0.2704	721.2	–	0.606
373.15 K, x1 = 0.3915	729.5	–	0.575
373.15 K, x1 = 0.4988	738	–	0.547
373.15 K, x1 = 0.5961	746.5	–	0.523
373.15 K, x1 = 0.6892	755.6	–	0.5
373.15 K, x1 = 0.7751	764.9	–	0.48
373.15 K, x1 = 0.8553	774.3	–	0.461
373.15 K, x1 = 0.9299	784.7	–	0.444
373.15 K, x1 = 1	795	–	0.43

Settings	surface tension liquid-gas [mN/m]
x1 = 0.1414	26.5
x1 = 0.2704	26.7
x1 = 0.3915	27
x1 = 0.4988	27
x1 = 0.5961	27.3
x1 = 0.6892	27.3
x1 = 0.7751	27.8
x1 = 0.8553	28
x1 = 0.9299	28.3

— the NIST ThermoML archive (doi:10.1021/acs.jced.6b00542)
